Results as given in patent publication US20090035394A1, “USE OF DNA-PK INHIBITION TO SENSITISE ATM DEFICIENT CANCERS TO DNA-DAMAGING CANCER THERAPIES” (priority 2005, published 2009).

Tests used:
[1] = system: pEBS7-YZ5 (ATM-competent, ATM+/+) cells; experiment: Chemopotentiation, sulforhodamine B growth assay in 96 well plates; assay type: cell-based, human; details: for % survival / Avg (absorbance at 564 nm): no inhibitor, pEBS7-YZ; for PF50 (potentiation factor at 50% cell kill): damaging agent without / with KU-0060648 (0.5 μM), pEBS7-YZ (ATM-competent)
Description: (§1) The A-T fibroblast AT221JE-T cells (pEBS7, herein referred to as ATM-null cells) and the trans-complemented ATM+/+ (pEBS7-YZ5, herein referred to as ATM-competent cells) were grown in DMEM+20% FBS PSG and 100 ug/ml hygromycin. These cells are immortalised fibroblasts from an A-T patient which were transfected with pEBS7-YZ5 vector coding for full length ATM and the hygromycin resistance marker or pEBS7 vector, coding for the hygromycin resistance marker only. (Ziv Y et al (1997) Oncogene 15, 159-67)
(§2) Following a 4-hour incubation to allow cell adherence, 5 μl DNA-PKcS inhibitor KU-0060648 (final concentration 0.5 μM) or DMSO/PBS equivalent was added. After a further 1 hour incubation, 5 μl of chemotherapeutic drug was added per well (see table 1). Drugs were removed after 16 hours and 150 μl fresh medium added per well. After 24h, one plate for each cell line was fixed and stained to account for background differences between the lines. Five days after seeding, the medium was aspirated from the wells of the remaining assay plates and 100 μl ice cold 10% TCA added for 30 minutes at 4° C. The wells were then washed four times with tap water and 50 μl 0.4% sulforhodamine B in 1% acetic acid added per well. After 15 minutes incubation at room temperature, excess stain was washed from the wells with 1% acetic acid. 100 μl […] pH6.8 was then added per well, the plates shaken to resuspend the stain and the absorbance at 564 nm determined.

pEBS7 (ATM-null) cells = experiment: as above; assay type: cell-based, human; details: for % survival / Avg (absorbance at 564 nm): no inhibitor, pEBS7; for PF50 (potentiation factor at 50% cell kill): damaging agent without / with KU-0060648 (0.5 μM), pEBS7 (ATM-null)
Description: as §1, §2

[2] = Con: doxorubicin 0.01 (unit not given)
[3] = Con: doxorubicin 0.025 (unit not given)
[4] = Con: doxorubicin 0.05 (unit not given)
[5] = Con: doxorubicin 0.075 (unit not given)
[6] = Con: doxorubicin 0.1 (unit not given)
[7] = Con: doxorubicin 0.25 (unit not given)
[8] = Con: doxorubicin 0.5 (unit not given)
[9] = Con: doxorubicin 0.75 (unit not given)
[10] = Con: doxorubicin 1 (unit not given)
[11] = Con: doxorubicin 2.5 (unit not given)
[12] = Con: doxorubicin 5 (unit not given)
[13] = Con: etoposide 0.01 (μg/ml per Table 1)
[14] = Con: etoposide 0.025 (μg/ml per Table 1)
[15] = Con: etoposide 0.05 (μg/ml per Table 1)
[16] = Con: etoposide 0.075 (μg/ml per Table 1)
[17] = Con: etoposide 0.1 (μg/ml per Table 1)
[18] = Con: etoposide 0.25 (μg/ml per Table 1)
[19] = Con: etoposide 0.5 (μg/ml per Table 1)
[20] = Con: etoposide 0.75 (μg/ml per Table 1)
[21] = Con: etoposide 1 (μg/ml per Table 1)
[22] = Con: etoposide 2.5 (μg/ml per Table 1)
[23] = Con: etoposide 5 (μg/ml per Table 1)

## COc1cccc2c1C(=O)c1c(O)c3c(c(O)c1C2=O)C[C@@](O)(C(=O)CO)C[C@@H]3O[C@H]1C[C@H](N)[C@H](O)[C@H](C)O1 [Doxorubicin, doxorubicin, reference compound]
[1]; [2]
  % survival: 88.3%
  Avg (absorbance at 564 nm): 1.43
[1]; [3]
  % survival: 89.4%
  Avg (absorbance at 564 nm): 1.45
[1]; [4]
  % survival: 87.3%
  Avg (absorbance at 564 nm): 1.42
[1]; [5]
  % survival: 94.1%
  Avg (absorbance at 564 nm): 1.53
[1]; [6]
  % survival: 103.9%
  Avg (absorbance at 564 nm): 1.69
[1]; [7]
  % survival: 95.3%
  Avg (absorbance at 564 nm): 1.55
[1]; [8]
  % survival: 53.4%
  Avg (absorbance at 564 nm): 0.87
[1]; [9]
  % survival: 33.2%
  Avg (absorbance at 564 nm): 0.54
[1]; [10]
  % survival: 8.8%
  Avg (absorbance at 564 nm): 0.14
[1]; [11]
  % survival: −1.7%
  Avg (absorbance at 564 nm): −0.03
[1]; [12]
  % survival: −2.6%
  Avg (absorbance at 564 nm): −0.04
[1]
  PF50 (potentiation factor at 50% cell kill): 1.5
pEBS7 (ATM-null) cells; [2]
  % survival: 111.8%
  Avg (absorbance at 564 nm): 1.46
pEBS7 (ATM-null) cells; [3]
  % survival: 117.0%
  Avg (absorbance at 564 nm): 1.53
pEBS7 (ATM-null) cells; [4]
  % survival: 106.4%
  Avg (absorbance at 564 nm): 1.39
pEBS7 (ATM-null) cells; [5]
  % survival: 113.1%
  Avg (absorbance at 564 nm): 1.47
pEBS7 (ATM-null) cells; [6]
  % survival: 111.2%
  Avg (absorbance at 564 nm): 1.45
pEBS7 (ATM-null) cells; [7]
  % survival: 63.8%
  Avg (absorbance at 564 nm): 0.83
pEBS7 (ATM-null) cells; [8]
  % survival: 37.3%
  Avg (absorbance at 564 nm): 0.49
pEBS7 (ATM-null) cells; [9]
  % survival: 12.6%
  Avg (absorbance at 564 nm): 0.16
pEBS7 (ATM-null) cells; [10]
  % survival: −0.9%
  Avg (absorbance at 564 nm): −0.01
pEBS7 (ATM-null) cells; [11]
  % survival: −2.6%
  Avg (absorbance at 564 nm): −0.03
pEBS7 (ATM-null) cells; [12]
  % survival: −3.6%
  Avg (absorbance at 564 nm): −0.05
pEBS7 (ATM-null) cells
  PF50 (potentiation factor at 50% cell kill): 2.3

## COc1cc([C@@H]2c3cc4c(cc3[C@@H](O[C@@H]3O[C@@H]5CO[C@@H](C)O[C@H]5[C@H](O)[C@H]3O)[C@H]3COC(=O)[C@H]23)OCO4)cc(OC)c1O [Etoposide, etoposide, reference compound]
[1]; [13]
  % survival: 103.9%
  Avg (absorbance at 564 nm): 1.74
[1]; [14]
  % survival: 93.1%
  Avg (absorbance at 564 nm): 1.56
[1]; [15]
  % survival: 94.1%
  Avg (absorbance at 564 nm): 1.58
[1]; [16]
  % survival: 96.6%
  Avg (absorbance at 564 nm): 1.62
[1]; [17]
  % survival: 104.2%
  Avg (absorbance at 564 nm): 1.75
[1]; [18]
  % survival: 95.8%
  Avg (absorbance at 564 nm): 1.60
[1]; [19]
  % survival: 95.0%
  Avg (absorbance at 564 nm): 1.59
[1]; [20]
  % survival: 75.1%
  Avg (absorbance at 564 nm): 1.26
[1]; [21]
  % survival: 32.4%
  Avg (absorbance at 564 nm): 0.54
[1]; [22]
  % survival: 39.0%
  Avg (absorbance at 564 nm): 0.65
[1]; [23]
  % survival: 21.7%
  Avg (absorbance at 564 nm): 0.36
[1]
  PF50 (potentiation factor at 50% cell kill): 1.7
pEBS7 (ATM-null) cells; [13]
  % survival: 84.6%
  Avg (absorbance at 564 nm): 1.38
pEBS7 (ATM-null) cells; [14]
  % survival: 84.9%
  Avg (absorbance at 564 nm): 1.38
pEBS7 (ATM-null) cells; [15]
  % survival: 89.0%
  Avg (absorbance at 564 nm): 1.45
pEBS7 (ATM-null) cells; [16]
  % survival: 90.8%
  Avg (absorbance at 564 nm): 1.48
pEBS7 (ATM-null) cells; [17]
  % survival: 80.6%
  Avg (absorbance at 564 nm): 1.31
pEBS7 (ATM-null) cells; [18]
  % survival: 66.8%
  Avg (absorbance at 564 nm): 1.09
pEBS7 (ATM-null) cells; [19]
  % survival: 53.0%
  Avg (absorbance at 564 nm): 0.86
pEBS7 (ATM-null) cells; [20]
  % survival: 15.8%
  Avg (absorbance at 564 nm): 0.26
pEBS7 (ATM-null) cells; [21]
  % survival: 2.5%
  Avg (absorbance at 564 nm): 0.04
pEBS7 (ATM-null) cells; [22]
  % survival: 1.2%
  Avg (absorbance at 564 nm): 0.02
pEBS7 (ATM-null) cells; [23]
  % survival: −1.6%
  Avg (absorbance at 564 nm): −0.03
pEBS7 (ATM-null) cells
  PF50 (potentiation factor at 50% cell kill): 6.5
